Assay results from PubChem BioAssay (NCI).
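Values below derive from 48-hour exposures of cells grown in 96-well plates, with endpoints linearly interpolated between the two concentrations bracketing the appropriate inhibition level. GI50 marks 50% less growth. TGI is the concentration that stops growth completely.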

Columns and labels:
Experiment in all cases: DTP human tumour cell line panel, 48 h
HL-60(TB) leukemia = system: HL-60(TB) leukemia
M14 melanoma = system: M14 melanoma
A549 NSCLC = system: A549 NSCLC
HCT-15 colon = system: HCT-15 colon
SNB-75 CNS = system: SNB-75 CNS
SNB-19 CNS = system: SNB-19 CNS
UO-31 renal = system: UO-31 renal
RPMI-8226 leukemia = system: RPMI-8226 leukemia
HOP-62 NSCLC = system: HOP-62 NSCLC
UACC-62 melanoma = system: UACC-62 melanoma

SMILES | GI50 (HL-60(TB) leukemia) | TGI (HL-60(TB) leukemia) | GI50 (M14 melanoma) | TGI (M14 melanoma) | GI50 (A549 NSCLC) | TGI (A549 NSCLC) | GI50 (HCT-15 colon) | TGI (HCT-15 colon) | GI50 (SNB-75 CNS) | TGI (SNB-75 CNS) | GI50 (SNB-19 CNS) | TGI (SNB-19 CNS) | GI50 (UO-31 renal) | TGI (UO-31 renal) | GI50 (RPMI-8226 leukemia) | TGI (RPMI-8226 leukemia) | GI50 (HOP-62 NSCLC) | TGI (HOP-62 NSCLC) | GI50 (UACC-62 melanoma) | TGI (UACC-62 melanoma)
Cn1c([N+](=O)[O-])cnc1/C=C1\Oc2cc(Cl)ccc2C1=O | 0.421 µM | 5.04 µM | 0.499 µM | 4.61 µM | 1.7 µM | 7.06 µM | 0.267 µM | 1.05 µM | 1.8 µM | 9.38 µM | 1.64 µM | 6.21 µM | 0.25 µM | 1.3 µM | 1.73 µM | > 20.5 µM | 1.88 µM | 6.07 µM | – | –
O=c1ncccn1C1C=C(CO)C(O)C1O (stereo not drawn) | – | > 50 µM | – | > 50 µM | – | > 50 µM | – | > 50 µM | – | – | – | > 50 µM | – | > 50 µM | – | > 50 µM | – | > 50 µM | – | –
Cn1c2ccccc2c2c(=O)c3ccccc3[nH]c21 | 70.6 µM | > 100 µM | – | – | 26.9 µM | > 100 µM | 40.1 µM | > 100 µM | 84.7 µM | > 100 µM | 43.9 µM | > 100 µM | 58.2 µM | > 100 µM | 29.6 µM | 91.7 µM | 38.9 µM | > 100 µM | 69.7 µM | > 100 µM
COc1cc2cnc3c4ccccc4ccc3c2cc1OC | – | – | – | > 100 µM | – | > 100 µM | – | – | – | > 100 µM | – | > 100 µM | – | > 100 µM | – | > 100 µM | – | > 100 µM | – | > 100 µM
COC1OC(C)C(OCc2ccccc2)C(OS(=O)(=O)c2ccc(C)cc2)C1OS(=O)(=O)c1ccc(C)cc1 (stereo not drawn) | – | > 100 µM | – | > 100 µM | – | > 100 µM | – | > 100 µM | – | > 100 µM | – | > 100 µM | – | > 100 µM | – | > 100 µM | – | > 100 µM | – | –
C=CCSc1nc2ccccc2c(=O)n1Cc1ccco1 | – | – | – | > 100 µM | – | > 100 µM | – | > 100 µM | – | > 100 µM | – | > 100 µM | – | > 100 µM | – | > 100 µM | – | > 100 µM | – | > 100 µM
CCOC(=O)/C(=C/c1cccc(OC)c1)N(CC)CC | – | > 100 µM | – | > 100 µM | – | > 100 µM | – | > 100 µM | – | – | – | > 100 µM | – | > 100 µM | – | > 100 µM | – | > 100 µM | – | > 100 µM
NC(=O)/C=C/C(=O)O | – | > 5000 µM | – | > 5000 µM | – | > 5000 µM | – | > 5000 µM | – | > 5000 µM | – | – | – | > 5000 µM | – | > 5000 µM | – | > 5000 µM | – | > 5000 µM
O=C1c2cccnc2-c2nc(-c3ccncc3)cc3c2c1nc1ccccc13 | 12.3 µM | 89.6 µM | 17.8 µM | 31.6 µM | – | – | 10.2 µM | 21.8 µM | 13.1 µM | 25.8 µM | 19.3 µM | 47.4 µM | 33.2 µM | > 100 µM | 14.6 µM | 64.8 µM | 14.3 µM | 27.4 µM | – | –
COc1ccc(Nc2nc3ccccc3nc2-c2cccs2)cc1 | – | > 100 µM | – | > 100 µM | – | > 100 µM | – | > 100 µM | – | 82.2 µM | – | > 100 µM | – | > 100 µM | – | – | – | > 100 µM | – | > 100 µM
